According to patent publication US9938268B2, “C-ring modified tricyclic benzonaphthiridinone protein kinase inhibitors and use thereof” (Merck Patent GmbH, priority 2008, dated 2018):

biological target: Aurora A (Homo sapiens (Human), UniProt O14965); assay: Aurora A kinase inhibition (IC50); assay type: biochemical; settings: not given
Sequence (O14965 whole entry): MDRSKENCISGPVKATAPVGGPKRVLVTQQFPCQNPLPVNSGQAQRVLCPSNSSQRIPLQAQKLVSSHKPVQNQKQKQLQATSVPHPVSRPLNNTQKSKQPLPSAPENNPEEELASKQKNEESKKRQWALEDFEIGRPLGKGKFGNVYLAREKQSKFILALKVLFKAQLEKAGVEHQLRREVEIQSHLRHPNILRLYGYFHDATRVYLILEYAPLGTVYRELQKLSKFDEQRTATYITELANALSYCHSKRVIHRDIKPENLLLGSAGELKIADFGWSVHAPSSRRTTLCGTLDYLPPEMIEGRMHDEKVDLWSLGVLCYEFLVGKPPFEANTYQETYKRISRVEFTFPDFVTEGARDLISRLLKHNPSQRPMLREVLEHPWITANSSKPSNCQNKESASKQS

`O=C(Nc1ccc(Nc2ccnc3[nH]c(=O)c4c(c23)CCCC4)cc1)c1cccc(F)c1F` [Compound 7, 2,3-Difluoro-N-[4-(6-oxo-5,6,7,8,9,10-hexahydrobenzo[c][1,8]naphthyridin-1-ylamino)-phenyl]-1-benzamide] and `O=C(Nc1ccc(Nc2ccnc3[nH]c(=O)c4c(c23)CCCC4)cc1)c1cccc(C(F)(F)F)c1F` [Compound 11, 2-Fluoro-N-[4-(6-oxo-5,6,7,8,9,10-hexahydrobenzo[c][1,8]naphthyridin-1-ylamino)-phenyl]-3-trifluoromethyl-benzamide] fall in the same range of IC50: 1 to 10 nM for the first, 1 to 10 nM for the second.

`O=C(Nc1ccc(Nc2ccnc3[nH]c(=O)c4c(c23)CCCC4)c(F)c1)c1cccc(F)c1F` [Compound 56, 2,3-Difluoro-N-[3-fluoro-4-(6-oxo-5,6,7,8,9,10-hexahydrobenzo[c][1,8]naphthyridin-1-ylamino)-phenyl]-1-benzamide] and `O=C(Nc1ccc(Nc2ccnc3[nH]c(=O)c4c(c23)CCCC4)c(F)c1)c1ccc(F)c(F)c1` [Compound 55, 3,4-Difluoro-N-[3-fluoro-4-(6-oxo-5,6,7,8,9,10-hexahydrobenzo[c][1,8]naphthyridin-1-ylamino)-phenyl]-1-benzamide] fall in the same range of IC50: 1 to 10 nM for the first, 1 to 10 nM for the second.

Compared with `O=C(Nc1ccc(Nc2ccnc3[nH]c(=O)c4c(c23)CCCC4)cc1)c1ccccc1` [Compound 5, N-[4-(6-Oxo-5,6,7,8,9,10-hexahydrobenzo[c][1,8]naphthyridin-1-ylamino)-phenyl]-benzamide], `O=C(Nc1ccc(Nc2ccnc3[nH]c(=O)c4c(c23)CNCC4)cc1)c1ccccc1` [Compound 28, N-[4-(9-oxo-5,6,7,8,9,10-hexahydro-1,6,10-triaza-phenanthren-4-ylamino)-phenyl]-benzamide] is higher in IC50: 11 to 100 nM for the first, 101 to 1000 nM for the second.

`O=C(Nc1ccc(Nc2ccnc3[nH]c(=O)c4c(c23)CCCC4)c(F)c1)c1cccc(F)c1` [Compound 53, 3-Fluoro-N-[3-fluoro-4-(6-oxo-5,6,7,8,9,10-hexahydrobenzo[c][1,8]naphthyridin-1-ylamino)-phenyl]-2-benzamide] and `O=C(Nc1ccc(Nc2ccnc3[nH]c(=O)c4c(c23)CCCC4)c(F)c1)c1ccc(F)cc1C(F)(F)F` [Compound 52, 4-Fluoro-N-[3-fluoro-4-(6-oxo-5,6,7,8,9,10-hexahydrobenzo[c][1,8]naphthyridin-1-ylamino)-phenyl]-2-trifluoromethyl-benzamide] fall in the same range of IC50: 1 to 10 nM for the first, 1 to 10 nM for the second.

`COc1ccc(Nc2ccnc3[nH]c(=O)c4ccoc4c23)cc1` [Compound 38, 9-(4-Methoxy-phenylamino)-5H-furo[3,2-c][1,8]naphthyridin-4-one] and `O=c1[nH]c2nccc(Nc3ccc(Cl)cc3)c2c2occc12` [Compound 39, 9-(4-Chloro-phenylamino)-5H-furo[3,2-c][1,8]naphthyridin-4-one] fall in the same range of IC50: 101 to 1000 nM for the first, 101 to 1000 nM for the second.

`O=C(Nc1ccc(Nc2ccnc3[nH]c(=O)c4ccoc4c23)cc1)c1ccccc1` [Compound 36, N-[4-(4-oxo-4,5-dihydro-furo[3,2-c][1,8]naphthyridin-9-ylamino)-phenyl]-benzamide] and `O=C(Nc1ccc(Nc2ccnc3[nH]c(=O)c4n[nH]cc4c23)cc1)c1ccccc1` [Compound 33, N-(4-(4-oxo-4,5-dihydro-2H-pyrazolo[3,4-c][1,8]naphthyridin-9-ylamino)phenyl)benzamide] fall in the same range of IC50: 11 to 100 nM for the first, 11 to 100 nM for the second.

`COc1cccc(Nc2ccnc3[nH]c(=O)c4ccoc4c23)c1` [Compound 40, 9-(3-Methoxy-phenylamino)-5H-furo[3,2-c][1,8]naphthyridin-4-one] and `O=c1[nH]c2nccc(Nc3ccccc3)c2c2occc12` [Compound 37, 9-Phenylamino-5H-furo[3,2-c][1,8]naphthyridin-4-one] fall in the same range of IC50: 101 to 1000 nM for the first, 101 to 1000 nM for the second.

Compared with `O=C(Nc1ccc(Nc2ccnc3[nH]c(=O)c4c(c23)CCCC4)cc1)c1ccc(F)cc1` [Compound 10, 4-Fluoro-N-[4-(6-oxo-5,6,7,8,9,10-hexahydrobenzo[c][1,8]naphthyridin-1-ylamino)-phenyl]-1-benzamide], `O=C(Nc1ccc(Nc2ccnc3[nH]c(=O)c4c(c23)CCNC4)cc1)c1ccc(F)cc1` [Compound 25, 4-Fluoro-N-[4-(9-oxo-5,6,7,8,9,10-hexahydro-1,7,10-triaza-phenanthren-4-ylamino)-phenyl]-benzamide] is higher in IC50: 1 to 10 nM for the first, 101 to 1000 nM for the second.

`O=C(Nc1ccc(Nc2ccnc3[nH]c(=O)c4c(c23)CCCC4)cc1)c1cc(F)cc(F)c1` [Compound 9, 3,5-Difluoro-N-[4-(6-oxo-5,6,7,8,9,10-hexahydrobenzo[c][1,8]naphthyridin-1-ylamino)-phenyl]-1-benzamide] and `O=C(Nc1ccc(Nc2ccnc3[nH]c(=O)c4c(c23)CCCC4)cc1)c1ccc(F)c(F)c1` [Compound 8, 3,4-Difluoro-N-[4-(6-oxo-5,6,7,8,9,10-hexahydrobenzo[c][1,8]naphthyridin-1-ylamino)-phenyl]-1-benzamide] fall in the same range of IC50: 1 to 10 nM for the first, 1 to 10 nM for the second.

`Nc1ccc(Oc2ccnc3[nH]c(=O)c4c(c23)CCCC4)cc1` [Compound 46, 1-(4-Amino-phenoxy)-7,8,9,10-tetrahydro-5H-benzo[c][1,8]naphthyridin-6-one] and `O=C(Nc1ccc(Oc2ccnc3[nH]c(=O)c4c(c23)CCCC4)cc1)c1cccn(-c2ccc(F)cc2)c1=O` [Compound 48, 1-(4-Fluoro-phenyl)-2-oxo-1,2-dihydro-pyridine-3-carboxylic acid [4-(6-oxo-5,6,7,8,9,10-hexahydro-benzo[c][1,8]naphthyridin-1-yloxy)-phenyl]-amide] fall in the same range of IC50: 101 to 1000 nM for the first, 101 to 1000 nM for the second.

`O=C(Nc1ccc(Nc2ccnc3[nH]c(=O)c4c(c23)CCCC4)cc1F)c1ccc(F)cc1C(F)(F)F` [Compound 54, 4-Fluoro-N-[2-fluoro-4-(6-oxo-5,6,7,8,9,10-hexahydrobenzo[c][1,8]naphthyridin-1-ylamino)-phenyl]-2-trifluoromethyl-benzamide] and `O=C(Nc1ccc(Nc2ccnc3[nH]c(=O)c4c(c23)CCCC4)cc1)c1ccc(F)cc1C(F)(F)F` [Compound 6, 4-Fluoro-N-[4-(6-oxo-5,6,7,8,9,10-hexahydrobenzo[c][1,8]naphthyridin-1-ylamino)-phenyl]-2-trifluoromethyl-1-benzamide] fall in the same range of IC50: 1 to 10 nM for the first, 1 to 10 nM for the second.

First: O=C(Nc1ccc(Nc2ccnc3[nH]c(=O)c4c(c23)CCCC4)cc1)c1c(Cl)cccc1Cl [Compound 13, 2,6-Dichloro-N-[4-(6-oxo-5,6,7,8,9,10-hexahydrobenzo[c][1,8]naphthyridin-1-ylamino)-phenyl]-1-benzamide]
Second: O=C(Nc1ccc(Nc2ccnc3[nH]c(=O)c4c(c23)CCNC4)cc1)c1ccccc1 [Compound 27, N-[4-(9-oxo-5,6,7,8,9,10-hexahydro-1,7,10-triaza-phenanthren-4-ylamino)-phenyl]-benzamide]
The IC50 of the first is lower: 1 to 10 nM for the first, 101 to 1000 nM for the second.

First: O=C(Nc1ccc(Nc2ccnc3[nH]c(=O)c4c(c23)CCNC4)cc1)c1ccc(F)c(F)c1 [Compound 26, 3,4-Difluoro-N-[4-(9-oxo-5,6,7,8,9,10-hexahydro-1,7,10-triaza-phenanthren-4-ylamino)-phenyl]-benzamide]
Second: O=C(Nc1ccc(Nc2ccnc3[nH]c(=O)c4c(c23)CCN(Cc2ccccc2)C4)cc1)c1ccccc1 [Compound 29, N-[4-(7-Benzyl-9-oxo-5,6,7,8,9,10-hexahydro-1,7,10-triaza-phenanthren-4-ylamino)-phenyl]-benzamide]
The IC50 of the first is lower: 11 to 100 nM for the first, 101 to 1000 nM for the second. The first is the more potent here.

With `O=C(Nc1ccc(Nc2ccnc3[nH]c(=O)c4n[nH]cc4c23)cc1)c1ccc(F)cc1C(F)(F)F` [Compound 34, 4-fluoro-N-(4-(4-oxo-4,5-dihydro-2H-pyrazolonaphthyridin-9-ylamino)phenyl)-2-(trifluoromethyl)benzamide] the IC50 was 1 to 10 nM.

same assay, conditions: read-out: Aurora A IC50

`O=C(c1cccn(-c2ccc(F)cc2)c1=O)N1CCOc2cc(Oc3ccnc4[nH]c(=O)c5c(c34)CCCC5)ccc21` [Compound 49, 1-{4-[1-(4-Fluoro-phenyl)-2-oxo-1,2-dihydro-pyridine-3-carbonyl]-3,4-dihydro-2H-benzo[1,4]oxazin-7-yloxy}-7,8,9,10-tetrahydro-5H-benzo[c][1,8]naphthyridin-6-one] and `O=c1[nH]c2nccc(Oc3ccc4c(c3)OCCN4)c2c2c1CCCC2` [Compound 47, 1-(3,4-Dihydro-2H-benzo[1,4]oxazin-7-yloxy)-7,8,9,10-tetrahydro-5H-benzo[c][1,8]naphthyridin-6-one] fall in the same range of IC50: 101 to 1000 nM for the first, 101 to 1000 nM for the second.

First: Cc1cccc(-n2nc(C(C)(C)C)cc2NC(=O)Nc2ccc(Oc3ccnc4[nH]c(=O)c5c(c34)CCCC5)cc2)c1 [Compound 51, 1-(5-tert-Butyl-2-m-tolyl-2H-pyrazol-3-yl)-3-[4-(6-oxo-5,6,7,8,9,10-hexahydro-benzo[c][1,8]naphthyridin-1-yloxy)-phenyl]-urea]
Second: O=C(Nc1ccc(Nc2ccnc3[nH]c(=O)c4c(c23)CCCC4)cc1)c1cc(Cl)cc(Cl)c1 [Compound 12, 3,5-Dichloro-N-[4-(6-oxo-5,6,7,8,9,10-hexahydrobenzo[c][1,8]naphthyridin-1-ylamino)-phenyl]-1-benzamide]
The IC50 of the first is higher: 101 to 1000 nM for the first, 11 to 100 nM for the second. The second is the more potent here.

Compared with `O=c1[nH]c2nccc(Cl)c2c2cn(C(c3ccccc3)(c3ccccc3)c3ccccc3)nc12` [Compound 31, 9-Chloro-2-trityl-2H-pyrazolo[3,4-c][1,8]naphthyridin-4(5H)-one], `O=C(Nc1ccc(Nc2ccnc3[nH]c(=O)c4c(c23)CCNC4)cc1)c1ccc(F)cc1C(F)(F)F` [Compound 24, 4-Fluoro-N-[4-(9-oxo-5,6,7,8,9,10-hexahydro-1,7,10-triaza-phenanthren-4-ylamino)-phenyl]-2-trifluoromethyl-benzamide] is lower in IC50: 101 to 1000 nM for the first, 11 to 100 nM for the second. The second is the more potent here.
